Experimental data taken from PMC8044178, “Structural basis of norepinephrine recognition and transport inhibition in neurotransmitter transporters” (Nature Communications, 2021).
“And” between values parts separate entries of the source, which are not always exact repeats. Equal values may be shown once. Read-outs that look alike come from different tables or passages of the source.

Experiments:
[1] = biological target: T1, dDATfc (Drosophila melanogaster dopamine transporter functional construct) (Drosophila melanogaster, UniProt Q7K4Y6, DEL164-191/F471L/L415A/V74A); experiment: cell-based; conditions: for inhibition at 10 µM: Log[compound] M = -5
T1 construct: expressed in transfected cells; host or cells: HEK293S GnTI- cells, transient transfection with pEG-BacMam plasmid
Experimental: (§1) Additional mutations in the subsite B or subsite C were incorporated into this gene used for carrying out the uptake assays.
(§2) Cells were transiently transfected with pEG-BacMam plasmid harboring the dDAT cGFP gene and incubated for 35–40 hrs at 37 °C with 5% CO2 and 80% humidity. […] The transport activity was arrested with 0.5 ml of pre-chilled assay buffer containing 100 μM desipramine (Sigma Aldrich) added to each reaction. The cells were then washed twice with the same buffer before solubilizing them in 0.1 ml of 20 mM DDM for one hour at room temperature. […] Following this, 0.1 ml of the supernatant was added to 0.5 ml of scintillation fluid (Ultima Gold, Perkin Elmer) and the radioactivity was estimated on MicroBeta scintillation counter (Perkin Elmer). […] The background-subtracted, dose–response plots were analyzed using GraphPad Prism v.5.0.1 and Ki values were determined from Cheng–Prusoff’s equation using the IC50 values obtained from the experiments.

hNET [2] = conditions: read-out: KM of transport by hNET; cited from earlier work
hDAT [3] = conditions: read-out: KM of transport by hDAT; cited from earlier work
dDATNET = biological target: T2, dDATNET (Drosophila melanogaster, UniProt Q7K4Y6, D121G/DEL162-202/F471L/L415A/S426M/V74A); experiment: biochemical; type: binding
T2 construct: GFP-8x-His (C); made in house; host or cells: HEK293S GnTI- cells, BacMam baculovirus transduction
Experimental: (§3) Binding assays were performed with 20 nM of purified dDAT protein by scintillation proximity assay. For determining nisoxetine Kd, [^3H] Nisoxetine (Perkin Elmer) (in 1:5 molar ratio) was used in the range of 0.1 nM to 500 nM with 100 µM desipramine added to the control samples. Competition assays were done with 50 nM [^3H] […] The assays were done in 1 mM DDM, 0.2 mM CHS, 20 mM Tris-Cl (pH 8), 300 mM NaCl and 5% glycerol. The background values were subtracted to plot the final curves in GraphPad prism v5.0.1 and the Kd values were calculated. The IC50 values obtained from binding competition assays were used to deduce the Ki values by Cheng–Prusoff’s equation.

dDATfc A117S = biological target: T3, dDATfc A117S (Drosophila melanogaster, UniProt Q7K4Y6, A117S/DEL164-191/F471L/L415A/V74A); experiment: cell-based
T3 construct: expressed in transfected cells; host or cells: HEK293S GnTI- cells, transient transfection with pEG-BacMam plasmid
Experimental: (§4) Earlier studies have posited that non-conserved residues in the primary binding site are responsible for selective inhibition of biogenic amine uptake[57],[58]. […] Effects of these mutations were analyzed through uptake inhibition using the three SNRIs employed in this study (Fig. 6a–c). […] Supplementary Table 2)[56],[59].
as §1, §2

dDATfc A428S = biological target: T4, dDATfc A428S (Drosophila melanogaster, UniProt Q7K4Y6, A428S/DEL164-191/F471L/L415A/V74A); experiment: cell-based
T4 construct: expressed in transfected cells; host or cells: HEK293S GnTI- cells, transient transfection with pEG-BacMam plasmid
Experimental: as §4, §1, §2

dDATfc A117S/A428S = biological target: T5, dDATfc A117S/A428S (Drosophila melanogaster, UniProt Q7K4Y6, A117S/A428S/DEL164-191/F471L/L415A/V74A); experiment: cell-based; type: cell-based
T5 construct: expressed in transfected cells; host or cells: HEK293S GnTI- cells, transient transfection with pEG-BacMam plasmid
Experimental: as §4, §1, §2

dDATmfc = biological target: T6, dDATmfc (Drosophila melanogaster, UniProt Q7K4Y6, DEL162-202/F471L/L415A/V74A); experiment: biochemical; conditions: read-out: Percent binding
T6 construct: GFP-8x-His (C); made in house; host or cells: HEK293S GnTI- cells, BacMam baculovirus transduction
Experimental: as §3

hDAT [4] = biological target: hDAT; parameters: method as in earlier work; conditions: vs. RTI-55; ref 4 (Supplementary: Vaishnavi et al., 2004); read-out: Binding Inhibition (Ki), hDAT; cited from earlier work
hDAT [5] = conditions: read-out: Uptake Inhibition Ki, hDAT; ref 3 (Supplementary: Bymaster et al., 2003); cited from earlier work
hNET [6] = conditions: cited from earlier work
[7] = HEK293S, 0.5 h, read-out: Percent inhibition of DA uptake, dDATfc, single replicates
[8] = HEK293S, 0.5 h, read-out: Percent inhibition of DA uptake
[9] = 0.5 h, read-out: Percent inhibition of DA uptake

**Q.** With `NCCc1ccc(O)c(O)c1` [DA, dopamine] as the molecule, how does the inhibition at 30 µM ([1]; HEK293S, 0.5 h, read-out: Percent inhibition of DA uptake, dDATfc, Log[compound] M = -4.52288, single replicates) read?
**A.** 8.62%

**Q.** And the inhibition at 10 µM [1, 7]?
**A.** 20%

**Q.** What about the inhibition at 3 µM ([1]; HEK293S, 0.5 h, read-out: Percent inhibition of DA uptake, dDATfc, Log[compound] M = -5.52288, single replicates) of the same molecule?
**A.** 56.5%

**Q.** What about the inhibition at 0.1 µM ([1]; HEK293S, 0.5 h, read-out: Percent inhibition of DA uptake, dDATfc, Log[compound] M = -7, single replicates) of the same molecule?
**A.** 91.1%

**Q.** And the inhibition at 0.03 µM ([1]; HEK293S, 0.5 h, read-out: Percent inhibition of DA uptake, dDATfc, Log[compound] M = -7.52288, single replicates)?
**A.** 92.7%

**Q.** What about the Km (hNET [2]) of the same molecule?
**A.** 670 nM

**Q.** And the Km (hDAT [3])?
**A.** 2.54 µM

**Q.** What does the source list for `CNCC[C@H](Oc1cccc2ccccc12)c1cccs1` [Dulox]?
**A.** remaining activity at 0.03 µM (dDATNET; read-out: Percent binding): 86.3%; remaining activity at 0.1 µM (dDATNET; read-out: Percent binding): 57.8%; remaining activity at 0.3 µM (dDATNET; read-out: Percent binding): 34.1%; remaining activity at 1 µM (dDATNET; read-out: Percent binding): 18.4%

**Q.** What does the source list for `NCC(O)c1ccc(O)c(O)c1` [NE, L-norepinephrine]?
**A.** inhibition at 3000 µM ([1]; HEK293S, 0.5 h, read-out: Percent inhibition of DA uptake, dDATfc, Log[compound] M = -2.52288, single replicates): 2.69%; inhibition at 100 µM ([1]; HEK293S, 0.5 h, read-out: Percent inhibition of DA uptake, dDATfc, Log[compound] M = -4, single replicates): 29.3%; inhibition at 10 µM [1, 7]: 64.5%; inhibition at 1 µM ([1]; HEK293S, 0.5 h, read-out: Percent inhibition of DA uptake, dDATfc, Log[compound] M = -6, single replicates): 92.2%; Ki ([1]; Ki, inhibition of [3H] dopamine uptake): 19.1 µM and 19 µM; Km (hNET [2]): 2600 nM; Km (hDAT [3]): 20 µM

**Q.** What does the source list for `CNCC[C@H](Oc1cccc2ccccc12)c1cccs1` [S-duloxetine]?
**A.** inhibition at 0.001 µM [1, 8]: 96.4%; inhibition at 0.003 µM [1, 8]: 88.9%; inhibition at 0.01 µM [1, 8]: 85.9%; inhibition at 0.03 µM [1, 8]: 77.7%; inhibition at 0.1 µM [1, 8]: 45%; inhibition at 0.3 µM [1, 8]: 21.9%; inhibition at 0.03 µM (dDATfc A117S; [9]): 96.1%; inhibition at 0.03 µM (dDATfc A428S; [9]): 94.4%; inhibition at 0.1 µM (dDATfc A428S; [9]): 80.2%; inhibition at 0.3 µM (dDATfc A428S; [9]): 45.5%; inhibition at 1 µM (dDATfc A428S; [9]): 9.62%; inhibition at 1 µM (dDATfc A117S/A428S; 0.5 h, read-out: Percent inhibition of DA uptake, A117S_A428S, Log[compound] M = -6, single replicates): 11.2%; inhibition at 0.3 µM (dDATfc A117S/A428S; 0.5 h, read-out: Percent inhibition of DA uptake, A117S_A428S, Log[compound] M = -6.52288, single replicates): 44%; inhibition at 0.1 µM (dDATfc A117S/A428S; 0.5 h, read-out: Percent inhibition of DA uptake, A117S_A428S, Log[compound] M = -7, single replicates): 76.7%; inhibition at 0.001 µM (dDATfc A117S/A428S; 0.5 h, read-out: Percent inhibition of DA uptake, A117S_A428S, Log[compound] M = -9, single replicates): 97.8%; increase in IC50 values, combination of A428S and A117S (dDATfc A117S/A428S; double mutant vs dDATfc): ~ 3 fold; remaining activity at 0.003 µM (dDATmfc): 86.1%; remaining activity at 0.1 µM (dDATmfc): 22.9%; Ki (hDAT [4]): 230 ± 17 nM; Ki (hDAT [5]): 370 nM

**Q.** Which results are given for `COc1cccc(C2(O)CCCCC2CN(C)C)c1` (stereo not shown) [Tramadol, tramadol]?
**A.** IC50 [1]: 24.7 ± 2.8 µM; Ki [1]: 15.9 ± 1.8 µM; inhibition at 30 µM [1, 8]: 38.5%; IC50 (dDATfc A117S): 35.8 ± 2.2 µM; inhibition at 100 µM (dDATfc A117S; 0.5 h, A117S, Log[compound] M = -4, single replicates, read-out: Percent inhibition of DA uptake): 29.4%; inhibition at 1 µM (dDATfc A117S; 0.5 h, A117S, Log[compound] M = -6, single replicates, read-out: Percent inhibition of DA uptake): 105%; inhibition at 3 µM (dDATfc A117S; [9]): 105%; inhibition at 30 µM (dDATfc A117S; [9]): 61.3%; inhibition at 300 µM (dDATfc A117S; [9]): 13.1%; inhibition at 3000 µM (dDATfc A117S; [9]): 3.78%; IC50 (dDATfc A428S): 50.5 ± 5.4 µM; inhibition at 100 µM (dDATfc A428S; 0.5 h, A428S, Log[compound] M = -4, single replicates, read-out: Percent inhibition of DA uptake): 32.2%; inhibition at 1 µM (dDATfc A428S; 0.5 h, A428S, Log[compound] M = -6, single replicates, read-out: Percent inhibition of DA uptake): 92.4%; inhibition at 300 µM (dDATfc A428S; [9]): 11.6%; IC50 (dDATfc A117S/A428S): 130 ± 12.2 µM; inhibition at 100 µM (dDATfc A117S/A428S; 0.5 h, read-out: Percent inhibition of DA uptake, A117S_A428S, Log[compound] M = -4, single replicates): 48.1%; Ki (dDATNET; Binding Ki with dDATNET (vs. Nisoxetine)): 5.31 µM and 5.3 µM; remaining activity at 100 µM (dDATNET; DAT NET, Log Tramadol (M) -4, replicate values, read-out: Percent binding): 43.3%; remaining activity at 30 µM (dDATNET; read-out: Percent binding): 60%; remaining activity at 300 µM (dDATNET; read-out: Percent binding): 17.9%; remaining activity at 3000 µM (dDATNET; read-out: Percent binding): 4.79%; remaining activity at 1000 µM (dDATmfc; DATmfc, Log Tramadol (M) -3, replicate values): 6.84%; remaining activity at 100 µM (dDATmfc; DATmfc, Log Tramadol (M) -4, replicate values): 23.9%; remaining activity at 10 µM (dDATmfc; DATmfc, Log Tramadol (M) -5, replicate values): 74.2%; remaining activity at 1 µM (dDATmfc; DATmfc, Log Tramadol (M) -6, replicate values): 91.4%; remaining activity at 3 µM (dDATmfc): 91%; remaining activity at 30 µM (dDATmfc): 44%; greater affinity to NET over DAT (hNET [6]; NET over DAT): ~ 50 fold

**Q.** Which IC50 (hNET [6]; read-out: IC50, inhibition of hNET) does the source give for `CN(C)C[C@H]1CCCC[C@]1(O)c1cccc(O)c1` [desmetramadol, O-desmethyl tramadol] here?
**A.** 6 µM
